Results: US20060154243A1 (priority 2003, published 2006)

Tests used:
[1] = tested on: sera SARS-green, SARS-yellow, 1a, 1b, 2, 6, 37, 62 and London; type: binding, human
[2] = tested on: rabbit serum obtained by immunizing with SARS-CoV strain Frankfurt 1; type: binding
[3] = tested on: control serum Blood-bank (commercial negative donor pooled serum); type: binding, human
[4] = tested on: control serum LUMC (pooled serum of ten healthy hospital workers); type: binding, human

Row | Sequence | Recognition of the peptide by sera of individuals infected by SARS-CoV, form recognized [1] | Rabbit serum linear peptides [2] | Rabbit serum looped peptides [2] | Control Serum Blood-Bank Looped peptides [3] | Control serum Blood-bank linear peptides [3] | Control serum LUMC linear peptides [4] | Control serum LUMC looped peptides [4]
1 | ATTEELPDEFVVVTA | recognized in linear and in looped form | 0.1 | 0.5 | – | – | – | –
2 | CICTVVQRCASNKPH | recognized in linear and in looped form | 0.0 | 0.5 | – | – | – | –
3 | CSCICTVVQRCASNK | recognized in linear and in looped form | 0.1 | 0.0 | – | – | – | –
4 | DPNQTNVVPPALHLV | recognized in linear and in looped form | 2.3 | 0.2 | – | – | – | –
5 | ITRMEDAMGQGQNSA | only recognized in looped form | 0.1 | 0.4 | – | – | – | –
6 | KLATTEELPDEFVVV | recognized in linear and in looped form | 0.2 | 0.5 | – | – | – | –
7 | LCFLAFLLFLVLIML | – | 0.2 | 0.3 | 0.7 | 0.7 | 0.4 | 0.4
8 | LFLVLIMLIIFWFSL | – | 0.4 | 0.5 | 0.8 | 0.8 | 0.4 | 0.4
9 | LIDFYLCFLAFLLFL | – | 0.3 | 0.3 | 0.5 | 0.7 | 0.4 | 0.7
10 | LLFLVLIMLIIFWFS | – | 0.5 | 0.6 | 0.9 | 0.9 | 0.4 | 0.4
11 | LTLIDFYLCFLAFLL | – | 0.3 | 0.5 | 0.5 | 0.9 | 0.8 | 0.7
12 | LVLIMLIIFWFSLEI | – | 0.4 | 0.6 | 0.7 | 0.9 | 0.8 | 0.3
13 | MNELTLIDFYLCFLA | – | 0.4 | 0.5 | 0.5 | 0.7 | 1.1 | 0.9
14 | NELTLIDFYLCFLAF | – | 0.4 | 0.8 | 0.5 | 0.6 | 0.6 | 0.9
15 | TLIDFYLCFLAFLLF | – | 0.4 | 0.4 | 0.4 | 0.7 | 0.8 | 0.8
16 | VLIMLIIFWFSLEIQ | – | 0.4 | 0.2 | 0.7 | 0.8 | 0.7 | 0.4
17 | YLCFLAFLLFLVLIM | – | 0.3 | 0.3 | 0.6 | 0.8 | 0.4 | 0.8
